Measured values as given in patent US12606571B2, “Macrocyclic compounds and uses thereof” (TURNING POINT THERAPEUTICS, INC., priority 2017, dated 2026).

Legend:
MKN-45 cells = assay: Scratch wound healing assay, MKN-45; assay type: cell-based; conditions: 36-48 hours treatment
Experimental: MKN-45 or HCC827 cells were seeded in 24-well plate. After 12-24 hours, confluent cell monolayers were gently scraped with a sterile pipette tip to form a scratch. The plates were washed with fresh medium, and the cells were incubated with medium alone or medium containing various concentration of compounds. After 36-48 hours, the plates were examined and recorded by an EVOS FL microscopy (Life Technology) to monitor rescaling of the cell monolayer.

[1] = tested on: MET phosphorylation and downstream signaling in MKN-45 cells; assay: Immunoblotting for cellular kinase phosphorylation, MKN-45; assay type: cell-based; conditions: 16 hour incubation
Experimental: Half a million cells per well were seeded in 24 well plate for 24 hrs, and then treated with compounds for 4 hours. Cells were collected after treatment and lysed in RIPA buffer (50 mM Tris, pH 7.4, 150 mM NaCl, 1% NP-40, 0.5% Deoxycholate, 0.1% SDS) supplemented with 10 mM EDTA, 1× Halt protease and phosphatase inhibitors (Thermo Scientific). […] Membranes were incubated with chemiluminescent substrate for 5 min at room temperature (SuperSignal West Femto, Thermo Scientific). The chemiluminescent images were acquired with a C-DiGit Imaging System (LI-COR Biosciences). The relative density of the chemiluminescent bands were quantified via Image Studio Digits from LICOR. The half inhibitory concentration (IC50) value is calculated using non-linear regression analysis through GraphPad Prism software (GraphPad, Inc., San Diego, CA).

MC38 syngeneic tumors = assay: Combination efficacy study with PD-1 antibody in MC38 syngeneic model; assay type: in vivo, mouse
Experimental: C57BL/6J female mice (6 weeks) were purchased from the Jackson Laboratory, and maintained in accordance with the guidelines for the care and use of laboratory animals. Half million MC38 cancer cells in 100 μL serum-free medium were implanted subcutaneously in the right flank region of the mouse. Tumor size and body weight were measured on designated days. Tumor size was measured with an electronic caliper and tumor volume was calculated as the product of length*width^2*0.5. […] Vehicle control, Compound 5, PD-1 antibody or Compound 5 plus PD-1 antibody were administered orally (BID) at determined doses.
Anti-tumor effects of Compound 5 combined with PD-1 antibody on MC38 syngeneic tumors was analyzed by tumor volume. The average tumor volume of vehicle control group (G1) on day 20 was 1938.58±729.41, Compound 5 treated group (G2) was 1220.03±521.39 mm3, PD-1 antibody treatment group was 821.24±767.16, and Compound 5 plus PD-1 antibody treatment was 515.63±350.47.

SRC = molecular target: T1, SRC (Homo sapiens, UniProt P12931); assay: Biochemical kinase assay (Reaction Biology), SRC; conditions: 10 μM ATP; read-out: Enzymatic Kinase SRC IC50
T1 construct: purchased Reaction Biology Corporation (assay service; enzyme from the CRO's panel)
Experimental: The biochemical kinase assay was performed at Reaction Biology Corporation (www.reactionbiology.com, Malvern, PA) following the procedures described in the reference (Anastassiadis T, et al Nat Biotechnol. 2011, 29, 1039). Specific kinase/substrate pairs along with required cofactors were prepared in reaction buffer; 20 mM Hepes pH 7.5, 10 mM MgCl2,1 mM EGTA, 0.02% Brij35, 0.02 mg/ml BSA, 0.1 mM Na3VO4, 2 mM DTT, 1% DMSO (for specific details of individual kinase reaction components see Supplementary Table 2). Compounds were delivered into the reaction, followed ˜20 minutes later by addition of a mixture of ATP (Sigma, St. Louis MO) and ^33P ATP (Perkin Elmer, Waltham MA) to a final concentration of 10 μM. Reactions were carried out at room temperature for 120 min, followed by spotting of the reactions onto P81 ion exchange filter paper (Whatman Inc., Piscataway, NJ). Unbound phosphate was removed by extensive washing of filters in 0.75% phosphoric acid. […] IC50 values and curve fits were obtained using Prism (GraphPad Software).
The enzymatic kinase inhibition activities at 10 μM ATP concentration were determined at Reaction Biology.

T1 sequence (P12931 whole entry): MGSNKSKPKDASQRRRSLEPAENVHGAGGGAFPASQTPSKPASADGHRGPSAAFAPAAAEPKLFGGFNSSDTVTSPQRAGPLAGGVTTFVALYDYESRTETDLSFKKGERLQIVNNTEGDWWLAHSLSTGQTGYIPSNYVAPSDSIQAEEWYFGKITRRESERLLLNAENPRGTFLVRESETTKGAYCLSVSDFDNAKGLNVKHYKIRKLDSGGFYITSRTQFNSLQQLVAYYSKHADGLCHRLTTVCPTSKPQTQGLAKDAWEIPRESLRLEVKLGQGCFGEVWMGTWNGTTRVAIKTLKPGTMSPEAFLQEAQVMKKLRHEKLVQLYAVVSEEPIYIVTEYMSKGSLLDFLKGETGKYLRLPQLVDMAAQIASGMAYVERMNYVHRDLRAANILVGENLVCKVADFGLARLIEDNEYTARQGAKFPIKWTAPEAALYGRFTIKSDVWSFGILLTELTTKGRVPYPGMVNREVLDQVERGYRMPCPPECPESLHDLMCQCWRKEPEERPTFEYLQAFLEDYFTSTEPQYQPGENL

CCN1Cc2c(ccc(F)c2C#N)O[C@@H](C)CNC(=O)c2c(N)nn3ccc1nc23 [Compound 5, (7S)-3-amino-14-ethyl-11-fluoro-7-methyl-4-oxo-4,5,6,7,13,14-hexahydro-1,15-ethenopyrazolo[4,3-f][1,4,8,10]benzoxatriazacyclotridecine-12-carbonitrile]
cell migration of MKN-45 cells, wound healing (MKN-45 cells): inhibited
phosphorylation of MET and downstream effectors (gel) [1]: inhibited
average tumor volume (MC38 syngeneic tumors; day 20): 1220.03±521.39 mm3
body weight and overt abnormality (MC38 syngeneic tumors; mouse, in vivo): No body weight loss and overt abnormality
IC50 (SRC): 0.12 nM
